Molecular target: BK β1 subunit (Rattus norvegicus, UniProt P97678)
Test: inside-out patch clamp, single-channel NPo in excised oocyte patches
Type: cell-based

Sequence of BK β1 subunit (P97678 whole entry): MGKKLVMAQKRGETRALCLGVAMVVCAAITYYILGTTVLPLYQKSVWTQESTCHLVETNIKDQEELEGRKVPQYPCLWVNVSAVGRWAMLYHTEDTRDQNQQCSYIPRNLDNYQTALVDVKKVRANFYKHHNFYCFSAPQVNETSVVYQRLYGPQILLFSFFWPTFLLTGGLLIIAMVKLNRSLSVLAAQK
Sequence of BK β1 subunit (Q62976 whole entry partner): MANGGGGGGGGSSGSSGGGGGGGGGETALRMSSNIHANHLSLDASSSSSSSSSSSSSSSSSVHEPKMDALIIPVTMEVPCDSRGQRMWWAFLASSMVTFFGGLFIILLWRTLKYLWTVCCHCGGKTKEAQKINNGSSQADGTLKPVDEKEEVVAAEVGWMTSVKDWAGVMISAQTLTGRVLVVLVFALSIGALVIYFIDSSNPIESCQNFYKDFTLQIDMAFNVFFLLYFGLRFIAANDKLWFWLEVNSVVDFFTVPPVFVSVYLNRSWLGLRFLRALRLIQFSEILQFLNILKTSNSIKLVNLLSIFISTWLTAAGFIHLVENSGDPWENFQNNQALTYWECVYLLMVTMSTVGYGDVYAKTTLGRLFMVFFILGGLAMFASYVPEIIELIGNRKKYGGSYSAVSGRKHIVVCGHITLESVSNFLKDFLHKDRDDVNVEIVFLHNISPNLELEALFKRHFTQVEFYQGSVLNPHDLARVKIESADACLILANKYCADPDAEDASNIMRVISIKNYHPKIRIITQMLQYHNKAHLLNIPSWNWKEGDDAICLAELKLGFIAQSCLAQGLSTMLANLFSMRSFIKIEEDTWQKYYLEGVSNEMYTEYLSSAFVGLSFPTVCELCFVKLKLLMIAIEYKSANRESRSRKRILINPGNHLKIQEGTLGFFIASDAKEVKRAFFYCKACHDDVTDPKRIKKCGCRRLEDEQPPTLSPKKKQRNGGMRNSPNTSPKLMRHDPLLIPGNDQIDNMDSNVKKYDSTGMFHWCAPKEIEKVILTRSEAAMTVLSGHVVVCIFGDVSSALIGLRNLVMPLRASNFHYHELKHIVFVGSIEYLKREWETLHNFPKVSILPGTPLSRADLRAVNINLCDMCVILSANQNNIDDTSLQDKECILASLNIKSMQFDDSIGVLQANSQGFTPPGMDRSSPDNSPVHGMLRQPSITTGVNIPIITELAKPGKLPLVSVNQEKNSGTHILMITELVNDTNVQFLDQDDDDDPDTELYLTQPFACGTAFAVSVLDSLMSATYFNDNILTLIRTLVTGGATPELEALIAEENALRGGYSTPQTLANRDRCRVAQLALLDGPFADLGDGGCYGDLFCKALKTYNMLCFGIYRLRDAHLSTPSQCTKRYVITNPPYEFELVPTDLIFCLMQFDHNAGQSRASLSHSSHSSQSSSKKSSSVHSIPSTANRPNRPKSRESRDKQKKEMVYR

Compound: C[C@H](CCC(=O)O)[C@H]1CC[C@H]2[C@@H]3CC[C@@H]4C[C@H](O)CC[C@]4(C)[C@H]3CC[C@]12C [LCA, 5β-cholanic acid-3α-ol]
- EC50: 44 µM

Compound: C[C@H](CCC#N)[C@H]1CC[C@H]2[C@@H]3CC[C@@H]4C[C@H](O)CC[C@]4(C)[C@H]3CC[C@]12C [compound 11, 3α-hydroxy-23-cyano analog, de-acetylated derivative (11)]
- EC50: 46.4 µM

Compound: C[C@H](CCCC(=O)O)[C@H]1CC[C@H]2[C@@H]3CC[C@@H]4C[C@H](O)CC[C@]4(C)[C@H]3CC[C@]12C [compound 15, higher homologe acid (15, carboxyl group at C25)]
- EC50: 42.8 µM
